Laboratory results as given in patent US20240209061A1, “FUSION PROTEINS AND USES THEREOF” (Pfizer Inc., priority 2020, published 2024).

System: CT26 murine colorectal carcinoma cells
Test: CT26 colorectal carcinoma model, combination with αPD1 antibody
Assay type: in vivo, mouse
Details: for Day 13 tumor volume / % tumor growth inhibition: αPD1 Ab 10 mg/kg where combined; for % tumor growth inhibition: Day 13
Procedure: CT26 murine colorectal carcinoma cells (1×10^6) were subcutaneously implanted in the hind flank of female Balb/c mice. When tumors reached ˜100 mm3 (day 8 after implantation), mice were randomized and dosed with PBS vehicle control, 0.1 mg/kg CD80-D90Q-Fc, and/or 10 mg/kg murine αPD1 antibody. CD80-D90Q-Fc was dosed on Days 0 and 3, αPD1 antibody was dosed on Days 0, 3 and 6. Tumor volume was determined by caliper measurements obtained in 2 dimensions and calculated as width^2×length/2. Error bars are depicted as ±SEM
IFNγ ELIspot was used to measure tumor-reactive T cells in the spleen and TDLNs in mice treated with 1 mg/kg D90Q, αPD1 Ab, or the combination. […] The combination led to an even higher amount of tumor-reactive T cells in the TDLN compared to either agent alone.

[1] = CD80-D90Q-Fc 1 mg/kg and/or αPD1 Ab, n=4 per group

CD80-D90Q-Fc: variant CD80 ECD (D90Q) fused to human IgG1 Fc
Tumor-reactive T cells (IFNγ ELIspot), Spleen [1]: 881.42
Tumor-reactive T cells (IFNγ ELIspot), TDLN [1]: 361.08
Day 13 tumor volume (CD80-Fc dose 0.1 mg/kg): 776.1 mm^3
Day 13 tumor volume (CD80-Fc dose 1 mg/kg): 270.4 mm^3
% tumor growth inhibition (CD80-Fc dose 0.1 mg/kg): 61.2%
% tumor growth inhibition (CD80-Fc dose 1 mg/kg): 86.5%
